The values below are quoted from earlier work in publication PMC10323144, “Garbage in, garbage out: how reliable training data improved a virtual screening approach against SARS-CoV-2 MPro” (Frontiers in Pharmacology, 2023).

The series relates to MPro. To be noted: compiled from peer-reviewed sources (287 compounds) ref the 18 original articles; cited from earlier work.

For the compound `COC(=O)N[C@H](C(=O)N1CCC[C@H]1C(=O)Nc1ccc([C@@H]2CC[C@@H](c3ccc(NC(=O)[C@@H]4CCCN4C(=O)[C@@H](NC(=O)OC)C(C)C)cc3)N2c2ccc(C(C)(C)C)cc2)cc1)C(C)C` [Ombitasvir], the “Class (MPro activity class)” value is on record as 0 (compounds with IC50 > 20 μM, percentage inhibition <80% at 20 µM or 50 μM, or percentage enzyme inhibition <50% at 10 µM were labelled as INACTIVE).

Take `COC[C@H](NC(=O)c1cnc(C)s1)C(=O)N[C@@H](COC)C(=O)N[C@@H](Cc1ccccc1)C(=O)[C@@]1(C)CO1` [Oprozomib]: the “Class (MPro activity class)” value is reported as 0 (compounds with IC50 > 20 μM, percentage inhibition <80% at 20 µM or 50 μM, or percentage enzyme inhibition <50% at 10 µM were labelled as INACTIVE).

Regarding `COc1c(OC2OC(C(=O)O)C(O)C(O)C2O)cc2oc(-c3ccccc3)cc(=O)c2c1O` [Oroxylin A-7-O-β-D-glucuronide], the “Class (MPro activity class)” value is given as 0 (compounds with IC50 > 20 μM, percentage inhibition <80% at 20 µM or 50 μM, or percentage enzyme inhibition <50% at 10 µM were labelled as INACTIVE).

Turning to `CCOC(=O)C1=C[C@@H](OC(CC)CC)[C@H](NC(C)=O)[C@@H](N)C1` [Oseltamivir], the “Class (MPro activity class)” value is on record as 0 (compounds with IC50 > 20 μM, percentage inhibition <80% at 20 µM or 50 μM, or percentage enzyme inhibition <50% at 10 µM were labelled as INACTIVE).

Regarding `CC(=O)c1cc([N+](=O)[O-])c(Sc2cccc(Cl)c2Cl)s1` [P005091], the “Class (MPro activity class)” value was 0 (compounds with IC50 > 20 μM, percentage inhibition <80% at 20 µM or 50 μM, or percentage enzyme inhibition <50% at 10 µM were labelled as INACTIVE).

In the case of `CC(=O)c1cc([N+](=O)[O-])c(Sc2ccc(F)cc2F)s1` [P22077], the “Class (MPro activity class)” value is 0 (compounds with IC50 > 20 μM, percentage inhibition <80% at 20 µM or 50 μM, or percentage enzyme inhibition <50% at 10 µM were labelled as INACTIVE).

With `CC(C)CCC(=O)CC1c2ccccc2C(=O)N1c1ccc2ccc(Cl)nc2n1` (stereo not drawn) [PAGOCLONE], the “Class (MPro activity class)” value is given as 0 (compounds with IC50 > 20 μM, percentage inhibition <80% at 20 µM or 50 μM, or percentage enzyme inhibition <50% at 10 µM were labelled as INACTIVE).

`O=C(CCl)N1CCN(Cc2cc(Cl)cc(Cl)c2)CC1` [PAU-UNI-8cdd41c7-1]: the “Class (MPro activity class)” value was 1 (Compounds with IC50 < 10 µM or with a percentage of enzyme inhibition >50% at 10 µM were labelled as ACTIVE).

As for `O=C(O)C(S)=Cc1c[nH]c2ccc(F)cc12` [PD151746], the “Class (MPro activity class)” value is 0 (compounds with IC50 > 20 μM, percentage inhibition <80% at 20 µM or 50 μM, or percentage enzyme inhibition <50% at 10 µM were labelled as INACTIVE).

Consider `COc1cccc2[nH]c(C(=O)NC(CC(C)C)C(=O)NC(CC3CCNC3=O)C(=O)CO)cc12` (stereo not drawn) [PF-00835231], for which the “Class (MPro activity class)” value is recorded as 1 (Compounds with IC50 < 10 µM or with a percentage of enzyme inhibition >50% at 10 µM were labelled as ACTIVE).

Consider `CCCc1ccc(OCC(=O)N(Cc2nc(-c3cccnc3)no2)C(C)C)cc1` [PI-1840], for which the “Class (MPro activity class)” value is reported as 0 (compounds with IC50 > 20 μM, percentage inhibition <80% at 20 µM or 50 μM, or percentage enzyme inhibition <50% at 10 µM were labelled as INACTIVE).

As to `CCC(C)SSc1ncc[nH]1` (stereo not drawn) [PX-12], the “Class (MPro activity class)” value is reported as 0 (compounds with IC50 > 20 μM, percentage inhibition <80% at 20 µM or 50 μM, or percentage enzyme inhibition <50% at 10 µM were labelled as INACTIVE).

Turning to `Cc1cnc(C(=O)N[C@H]2CCCCC/C=C\[C@@H]3C[C@@]3(C(=O)NS(=O)(=O)C3CC3)NC(=O)[C@@H]3C[C@@H](Oc4nc5ccccc5c5ccccc45)CN3C2=O)cn1` [Paritaprevir], the “Class (MPro activity class)” value is listed as 0 (compounds with IC50 > 20 μM, percentage inhibition <80% at 20 µM or 50 μM, or percentage enzyme inhibition <50% at 10 µM were labelled as INACTIVE).

`CCC(CC)C(NC(C)=O)C1C(N=C(N)N)CC(C(=O)O)C1O` (stereo not drawn) [Peramivir]: the “Class (MPro activity class)” value is recorded as 0 (compounds with IC50 > 20 μM, percentage inhibition <80% at 20 µM or 50 μM, or percentage enzyme inhibition <50% at 10 µM were labelled as INACTIVE).

Turning to `COc1cc([C@H]2OC[C@H]3[C@@H]2CO[C@H]3c2ccc(OC)c(OC)c2)ccc1O` [Phillygenin], the “Class (MPro activity class)” value is given as 0 (compounds with IC50 > 20 μM, percentage inhibition <80% at 20 µM or 50 μM, or percentage enzyme inhibition <50% at 10 µM were labelled as INACTIVE).

In the case of `COC(=O)N[C@H](C(=O)N1CCC[C@H]1c1nc2cc([C@H]3CC[C@H](c4cc5nc([C@@H]6CCCN6C(=O)[C@@H](NC(=O)OC)[C@@H](C)OC)[nH]c5cc4F)N3c3cc(F)c(N4CCC(c5ccc(F)cc5)CC4)c(F)c3)c(F)cc2[nH]1)[C@@H](C)OC` [Pibrentasvir], the “Class (MPro activity class)” value is reported as 0 (compounds with IC50 > 20 μM, percentage inhibition <80% at 20 µM or 50 μM, or percentage enzyme inhibition <50% at 10 µM were labelled as INACTIVE).

As for `O=C(O)[C@H]1C2CCC(CC2)[C@@H]1Nc1nc(-c2c[nH]c3ncc(F)cc23)ncc1F` [Pimodivir], the “Class (MPro activity class)” value was 0 (compounds with IC50 > 20 μM, percentage inhibition <80% at 20 µM or 50 μM, or percentage enzyme inhibition <50% at 10 µM were labelled as INACTIVE).

For the compound `Cc1cc(CCCOc2c(C)cc(-c3noc(C(F)(F)F)n3)cc2C)on1` [Pleconaril], the “Class (MPro activity class)” value is 0 (compounds with IC50 > 20 μM, percentage inhibition <80% at 20 µM or 50 μM, or percentage enzyme inhibition <50% at 10 µM were labelled as INACTIVE).

Consider `CC[C@@H]([C@H](C)O)n1ncn(-c2ccc(N3CCN(c4ccc(OC[C@@H]5CO[C@@](Cn6cncn6)(c6ccc(F)cc6F)C5)cc4)CC3)cc2)c1=O` [Posaconazole], for which the “Class (MPro activity class)” value is 0 (compounds with IC50 > 20 μM, percentage inhibition <80% at 20 µM or 50 μM, or percentage enzyme inhibition <50% at 10 µM were labelled as INACTIVE).

On to `O=C1c2ccccc2NC(c2cc(Br)ccc2O)N1N=Cc1cc(Br)ccc1O` (stereo not drawn) [QZ1], for which the “Class (MPro activity class)” value was 0 (compounds with IC50 > 20 μM, percentage inhibition <80% at 20 µM or 50 μM, or percentage enzyme inhibition <50% at 10 µM were labelled as INACTIVE).

On to `O=C1c2ccccc2NC(c2cc(Cl)ccc2O)N1N=Cc1cc(Cl)ccc1O` (stereo not drawn) [QZ2], for which the “Class (MPro activity class)” value was 1 (Compounds with IC50 < 10 µM or with a percentage of enzyme inhibition >50% at 10 µM were labelled as ACTIVE).

For the compound `COc1cc(Br)cc(C=NN2C(=O)c3ccccc3NC2c2cc(Br)cc(OC)c2O)c1O` (stereo not drawn) [QZ3], the “Class (MPro activity class)” value was 0 (compounds with IC50 > 20 μM, percentage inhibition <80% at 20 µM or 50 μM, or percentage enzyme inhibition <50% at 10 µM were labelled as INACTIVE).

Turning to `COc1ccc(O)c(C=NN2C(=O)c3ccccc3NC2c2cc(OC)ccc2O)c1` (stereo not drawn) [QZ4], the “Class (MPro activity class)” value is 1 (Compounds with IC50 < 10 µM or with a percentage of enzyme inhibition >50% at 10 µM were labelled as ACTIVE).

On to `O=C1c2ccccc2NC(c2cc([N+](=O)[O-])ccc2O)N1N=Cc1cc([N+](=O)[O-])ccc1O` (stereo not drawn) [QZ5], for which the “Class (MPro activity class)” value is given as 0 (compounds with IC50 > 20 μM, percentage inhibition <80% at 20 µM or 50 μM, or percentage enzyme inhibition <50% at 10 µM were labelled as INACTIVE).

As to `O=c1c(O)c(-c2ccc(O)c(O)c2)oc2cc(O)c(O)c(O)c12` [Quercetagetin], the “Class (MPro activity class)” value was 1 (Compounds with IC50 < 10 µM or with a percentage of enzyme inhibition >50% at 10 µM were labelled as ACTIVE).

As to `O=C(NC(Cc1cc(=O)[nH]c2ccccc12)C(=O)O)c1ccc(Cl)cc1` (stereo not drawn) [REBAMIPIDE], the “Class (MPro activity class)” value is given as 0 (compounds with IC50 > 20 μM, percentage inhibition <80% at 20 µM or 50 μM, or percentage enzyme inhibition <50% at 10 µM were labelled as INACTIVE).

As to `CN(C)C(=O)c1cc2cnc(Nc3ccc(N4CCNCC4)cn3)nc2n1C1CCCC1` [RIBOCICLIB], the “Class (MPro activity class)” value is on record as 0 (compounds with IC50 > 20 μM, percentage inhibition <80% at 20 µM or 50 μM, or percentage enzyme inhibition <50% at 10 µM were labelled as INACTIVE).

Consider `Cc1cc2nc3c(=O)[nH]c(=O)nc-3n(C[C@H](O)[C@H](O)[C@H](O)CO)c2cc1C` [RIBOFLAVIN], for which the “Class (MPro activity class)” value is 0 (compounds with IC50 > 20 μM, percentage inhibition <80% at 20 µM or 50 μM, or percentage enzyme inhibition <50% at 10 µM were labelled as INACTIVE).

For the compound `CC(C)(C(=O)NCC(F)(F)C(F)(F)F)C(=O)N[C@@H]1C(=O)Nc2ccccc2-c2ccccc21` [RO4929097], the “Class (MPro activity class)” value is 0 (compounds with IC50 > 20 μM, percentage inhibition <80% at 20 µM or 50 μM, or percentage enzyme inhibition <50% at 10 µM were labelled as INACTIVE).

Consider `Cc1nnc(C(=O)NC(C)(C)c2nc(C(=O)NCc3ccc(F)cc3)c(O)c(=O)n2C)o1` [Raltegravir], for which the “Class (MPro activity class)” value is reported as 0 (compounds with IC50 > 20 μM, percentage inhibition <80% at 20 µM or 50 μM, or percentage enzyme inhibition <50% at 10 µM were labelled as INACTIVE).

Consider `NC(=O)c1ncn([C@@H]2O[C@H](CO)[C@@H](O)[C@H]2O)n1` [Ribavirin], for which the “Class (MPro activity class)” value is reported as 0 (compounds with IC50 > 20 μM, percentage inhibition <80% at 20 µM or 50 μM, or percentage enzyme inhibition <50% at 10 µM were labelled as INACTIVE).

Take `NC[C@H]1O[C@H](O[C@H]2[C@H](O[C@@H]3O[C@H](CO)[C@@H](O)[C@H]3O)[C@@H](O)[C@H](N)C[C@@H]2N)[C@H](N)[C@@H](O)[C@@H]1O` [Ribostamycin]: the “Class (MPro activity class)” value is recorded as 0 (compounds with IC50 > 20 μM, percentage inhibition <80% at 20 µM or 50 μM, or percentage enzyme inhibition <50% at 10 µM were labelled as INACTIVE).

For the compound `CC(C)c1nc(CN(C)C(=O)N[C@H](C(=O)N[C@@H](Cc2ccccc2)C[C@H](O)[C@H](Cc2ccccc2)NC(=O)OCc2cncs2)C(C)C)cs1` [Ritonavir], the “Class (MPro activity class)” value was 0 (compounds with IC50 > 20 μM, percentage inhibition <80% at 20 µM or 50 μM, or percentage enzyme inhibition <50% at 10 µM were labelled as INACTIVE).

Take `CCOC(=O)/C=C/[C@H](C[C@@H]1CCNC1=O)NC(=O)[C@@H](CC(=O)[C@@H](NC(=O)c1cc(C)on1)C(C)C)Cc1ccc(F)cc1` [Rupintrivir]: the “Class (MPro activity class)” value is 0 (compounds with IC50 > 20 μM, percentage inhibition <80% at 20 µM or 50 μM, or percentage enzyme inhibition <50% at 10 µM were labelled as INACTIVE).

For the compound `N#CC[C@H](C1CCCC1)n1cc(-c2ncnc3[nH]ccc23)cn1` [Ruxolitinib], the “Class (MPro activity class)” value is recorded as 0 (compounds with IC50 > 20 μM, percentage inhibition <80% at 20 µM or 50 μM, or percentage enzyme inhibition <50% at 10 µM were labelled as INACTIVE).

With `O=S(=O)(CC1CS1)c1ccc(Oc2ccccc2)cc1` (stereo not drawn) [SB-3CT], the “Class (MPro activity class)” value is listed as 0 (compounds with IC50 > 20 μM, percentage inhibition <80% at 20 µM or 50 μM, or percentage enzyme inhibition <50% at 10 µM were labelled as INACTIVE).
